Values quoted from earlier work, collected in patent US20060257483A1, “Controlled release bupropion dosage forms” (ABRIKA Pharmaceuticals, priority 2005, published 2006).
Structures can show the parent of a compound that is named as a salt.

Conditions: powder

SMILES: CC(NC(C)(C)C)C(=O)c1cccc(Cl)c1 (stereo not shown) [bupropion hydrochloride]
- solubility in water: highly soluble in water
